{"source": "patent US11352368B2", "about": "“Salt of fused ring pyrimidine compound, crystal form thereof and preparation method therefor and use thereof” (GUANGZHOU MAXINOVEL PHARMACEUTICALS CO., LTD., priority 2018, dated 2022)", "key": {"[1]": {"assay": "Solubility test of the salts in pure water (Example 6)", "type": "physicochemical", "settings": "room temperature, balancing about 20 hours, HPLC", "method": "2.0 mg of sample was precisely weighed into a liquid phase vial, 1.0 mL of purified water was added, the vial was subjected to ultrasonic treatment for about 30 seconds to disperse the samples evenly, then the vial was placed on a Labquaker rotator, and slowly rotated at room temperature for balancing. After balancing for about 20 hours, each vial was removed, and the solution was filtered with 0.45 μm nylon filter membrane. The filtrate was diluted by DMSO or not diluted and then detected by HPLC. At the same time, two parts of fused ring pyrimidine compounds were weighed and dissolved in DMSO to make standard solutions with concentration of 250 μg/mL and 500 μg/mL, respectively. The standard solutions were subjected to the HPLC detection. The sample concentration vs the peak area of HPLC principal component was used for make a standard curve, and the solubility of each sample in pure water was calculated by a external standard method."}, "[2]": {"assay": "Solubility test of crystal form A and crystal form B in a medium (Example 12)", "type": "physicochemical", "settings": "for Solubility (calculated by free base of the fused ring pyrimidine compound): in mg/mL (unit assumed)", "source_text": "Example 12 Solubility Test of the Crystal Form A of the Fumarate of Fused Ring Pyrimidine Compound as Shown in Formula 2 and the Crystal Form B of the Adipate of Fused Ring Pyrimidine Compound as Shown in Formula 3 in a Medium"}, "[3]": {"assay": "Stability test (total impurities, 20 days)", "type": "physicochemical", "method": "The crystal form A of the fumarate of fused ring pyrimidine compound as shown in formula 2, the crystal form B of the adipate of fused ring pyrimidine compound as shown in formula 3 and the fused ring pyrimidine compound as shown in formula 1 were subjected to tests at a high temperature of 60° C., 25° C./60% RH, 40° C./75% RH and highlight irradiation (4500 lx±500 lx), the test time was 20 days, the sample bottles were placed under different test conditions, and samples were taken at 0 and 20 days to detect the total amount of impurities, and the test results were shown in Table 8 below."}, "[4]": {"assay": "Pharmacokinetic experiment, single intragastric dose in rats", "type": "in vivo, SD rats", "settings": "single dose 10 mg/kg, 0.5% MC and 0.5% Tween80 in water", "method": "1) Preparation of animals 9 healthy male SD rats, each with a body weight of 220-230 g, were taken, fed with standard formulated granulated feed for rats at fixed times every day, and fasted for 12 hours before the experiment, and feeding was resumed after 4 hours of administration. Rats were free to drink water before, after and during the experiment. 9 rats were randomly divided into 3 groups.\n2) Formulation of drugs: The fused ring pyrimidine compound as shown in formula 1, the crystal form A of the fumarate of fused ring pyrimidine compound as shown in formula 2 and the crystal form B of the adipate of fused ring pyrimidine compound as shown in formula 3 were accurately weighed, and were formulated into a 1 mg/mL solution in water (Wahaha/111830) with 0.5% MC (Fluka/BCBK3534K) and 0.5% Tween80 (TCl/V4FSC), respectively.\n3) Intragastric administration with single dose (10 mg/kg): in the first group, rats were intragastrically administered with a solution of the fused ring pyrimidine compound as shown in formula 1, in the second group, rats were intragastrically administered with a solution of the crystal form A of the fumarate of fused ring pyrimidine compound as shown in formula 2, and in the third group, rats were intragastrically administered with a solution of the crystal form B of the adipate of fused ring pyrimidine compound as shown in formula 3.\n4) Collection of blood samples: About 150 μL of blood was taken from the fundus venous plexus before administration and 0.083, 0.25, 0.5, 1, 2, 4, 8 and 24 hours after administration from each rat in the three groups, and anticoagulated with K2EDTA, plasma was separated by centrifugation and the supernatant was collected for LC-MS analysis."}, "JAK": {"system": "JAK", "settings": "cited from earlier work"}, "FGFR": {"system": "FGFR", "settings": "cited from earlier work"}, "FLT3": {"target": "T1, FLT3 (Homo sapiens, UniProt P36888)", "T1 sequence (P36888 27-993)": "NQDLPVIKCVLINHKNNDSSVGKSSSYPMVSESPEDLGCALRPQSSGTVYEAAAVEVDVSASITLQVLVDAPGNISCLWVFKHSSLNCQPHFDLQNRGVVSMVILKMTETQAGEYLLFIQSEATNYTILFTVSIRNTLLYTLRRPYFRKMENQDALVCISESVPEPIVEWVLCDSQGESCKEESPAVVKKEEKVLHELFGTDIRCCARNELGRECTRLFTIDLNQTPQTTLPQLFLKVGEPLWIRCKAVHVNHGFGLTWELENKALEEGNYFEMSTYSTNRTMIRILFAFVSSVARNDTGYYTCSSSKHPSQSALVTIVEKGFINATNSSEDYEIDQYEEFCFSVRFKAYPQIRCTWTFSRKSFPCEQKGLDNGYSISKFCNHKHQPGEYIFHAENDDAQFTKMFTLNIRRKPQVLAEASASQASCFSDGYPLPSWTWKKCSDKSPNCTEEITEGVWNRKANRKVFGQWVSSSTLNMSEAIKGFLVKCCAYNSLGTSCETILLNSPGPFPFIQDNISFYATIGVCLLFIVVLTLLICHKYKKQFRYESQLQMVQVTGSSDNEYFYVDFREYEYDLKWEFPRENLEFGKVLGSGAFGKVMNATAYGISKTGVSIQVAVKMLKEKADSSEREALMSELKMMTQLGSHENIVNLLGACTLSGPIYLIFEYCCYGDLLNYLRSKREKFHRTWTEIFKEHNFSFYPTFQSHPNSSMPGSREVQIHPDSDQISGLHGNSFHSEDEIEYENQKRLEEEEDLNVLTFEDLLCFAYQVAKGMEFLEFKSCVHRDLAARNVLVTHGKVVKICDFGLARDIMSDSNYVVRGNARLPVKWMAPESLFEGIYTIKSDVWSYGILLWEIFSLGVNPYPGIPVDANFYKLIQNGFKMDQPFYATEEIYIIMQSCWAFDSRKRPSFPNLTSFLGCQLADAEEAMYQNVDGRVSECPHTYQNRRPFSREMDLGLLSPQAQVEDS", "settings": "cited from earlier work"}, "Src kinase": {"system": "Src kinase", "settings": "cited from earlier work"}, "[5]": {"settings": "medium intestinal fluid in simulated fed state (FeSSIF)"}, "[6]": {"settings": "medium pH 4 (50 mM phosphate buffer)"}, "[7]": {"settings": "medium pH 6 (50 mM phosphate buffer)"}}, "data": [{"smiles": "COc1cc(F)ccc1-c1c(C)sc2cnc(Nc3cnn(C4CCNCC4)c3)nc12", "note": "[The fused ring pyrimidine compound as shown in formula 1] [N-[7-(4-fluoro-2-methoxyphenyl)-6-methylthieno[3,2-d]pyrimidin-2-yl]-1-(piperidin-4-yl)-1H-pyrazol-4-amine]", "values": [{"measurement": "saturated solubility", "setting": "[1]", "value": "<1", "unit": "µg/mL"}, {"measurement": "pH value of sample solution for solubility", "setting": "[2]; medium Purified water", "value": 8.29}, {"measurement": "Solubility (calculated by free base of the fused ring pyrimidine compound)", "setting": "[2]; medium Purified water", "value": "<0.001"}, {"measurement": "pH value of sample solution for solubility", "setting": "[2]; [5]", "value": 5.27}, {"measurement": "Solubility (calculated by free base of the fused ring pyrimidine compound)", "setting": "[2]; [5]", "value": 1.469}, {"measurement": "pH value of sample solution for solubility", "setting": "[2]; [6]", "value": 5.67}, {"measurement": "Solubility (calculated by free base of the fused ring pyrimidine compound)", "setting": "[2]; [6]", "value": 0.054}, {"measurement": "pH value of sample solution for solubility", "setting": "[2]; [7]", "value": 6.29}, {"measurement": "Solubility (calculated by free base of the fused ring pyrimidine compound)", "setting": "[2]; [7]", "value": 0.025}, {"measurement": "Impurity content", "setting": "[3]; Day 0", "value": 1.44, "unit": "%"}, {"measurement": "Impurity content", "setting": "[3]; Day 20, 25° C/60% RH", "value": 1.46, "unit": "%"}, {"measurement": "Impurity content", "setting": "[3]; Day 20, 40° C/75% RH", "value": 1.49, "unit": "%"}, {"measurement": "Impurity content", "setting": "[3]; Day 20, 60° C", "value": 1.44, "unit": "%"}, {"measurement": "Impurity content", "setting": "[3]; Day 20, Light (4500 lx±500 lx)", "value": 2.06, "unit": "%"}, {"measurement": "chemical stability in the condition of high temperature and high humidity", "setting": "[3]; high temperature and high humidity, 20 days", "value": "good chemical stability"}, {"measurement": "Blood drug concentration (AUC)", "setting": "[4]", "value": 57.7, "unit": "ng·h/mL"}, {"measurement": "inhibitory effect on JAK", "setting": "JAK", "value": "good inhibitory effect"}, {"measurement": "inhibitory effect on FGFR", "setting": "FGFR", "value": "good inhibitory effect"}, {"measurement": "inhibitory effect on FLT3", "setting": "FLT3", "value": "good inhibitory effect"}, {"measurement": "inhibitory effect on Src kinase", "setting": "Src kinase", "value": "good inhibitory effect"}]}]}
